Measured values reported in BindingDB's records for doi:10.1016/s0960-894x(01)00635-7 (Instituto De Química Médica (Csic), 2001).

Assay: Effective concentration required to inhibit HIV-1 induced cytopathicity by 50% in CEM cells

Row | EC50 [µM] | Compound
1 | 1.8 | Cc1cn([C@@H]2O[C@H](CO[Si](C)(C)C(C)(C)C)[C@@H](O[Si](C)(C)C(C)(C)C)[C@H]2O)c(=O)n(CC(=O)O)c1=O [{3-[4-(tert-Butyl-dimethyl-silanyloxy)-5-(tert-butyl-dimethyl-silanyloxymethyl)-3-hydroxy-tetrahydro-furan-2-yl]-5-methyl-2,6-dioxo-3,6-dihydro-2H-pyrimidin-1-yl}-acetic acid]

Assay: The compound was evaluated for inhibition of HIV-1 mutant […] recombinant reverse transcriptase

Row | Compound | EC50 [µM]
2 | Cc1cn([C@@H]2O[C@H](CO[Si](C)(C)C(C)(C)C)[C@@H](O)[C@H]2O[Si](C)(C)C(C)(C)C)c(=O)n(CC(=O)O)c1=O | 4.5
3 | Cc1cn([C@@H]2O[C@H](CO[Si](C)(C)C(C)(C)C)[C@@H](O[Si](C)(C)C(C)(C)C)[C@H]2O[Si](C)(C)C(C)(C)C)c(=O)n(CC(=O)OCc2ccccc2)c1=O | > 10
4 | Cc1cn([C@@H]2O[C@H](CO[Si](C)(C)C(C)(C)C)[C@@H](O[Si](C)(C)C(C)(C)C)[C@H]2O[Si](C)(C)C(C)(C)C)c(=O)n(CC(=O)O)c1=O | 32
5 | Cc1cn([C@H]2C[C@H](O[Si](C)(C)C(C)(C)C)[C@@H](CO[Si](C)(C)C(C)(C)C)O2)c(=O)n(CC(=O)O)c1=O | 5
6 | Cc1cn([C@@H]2O[C@H](CO)[C@@H](O)[C@H]2O[Si](C)(C)C(C)(C)C)c(=O)n(CC(=O)O)c1=O | 20
7 | Cc1cn(C2CCC(CO[Si](C)(C)C(C)(C)C)O2)c(=O)n(CC(=O)OCc2ccccc2)c1=O (stereo unspecified) | > 250
8 | Cc1cn([C@@H]2O[C@H](CO[Si](C)(C)C(C)(C)C)[C@@H](O[Si](C)(C)C(C)(C)C)[C@H]2O)c(=O)n(CC(=O)OCc2ccccc2)c1=O | > 50
9 | Cc1cn([C@@H]2O[C@H](CO)[C@@H](O)[C@H]2O[Si](C)(C)C(C)(C)C)c(=O)n(CC(=O)OCc2ccccc2)c1=O | 4
10 | Cc1cn(C2O[C@H](CO[Si](C)(C)C(C)(C)C)[C@@H](O)[C@H]2O)c(=O)n(CC(=O)O)c1=O (stereo partly specified) | 117
11 | Cc1cn(C2OC(CO[Si](C)(C)C(C)(C)C)CC2O[Si](C)(C)C(C)(C)C)c(=O)n(CC(=O)O)c1=O (stereo unspecified) [{3-[3-(tert-Butyl-dimethyl-silanyloxy)-5-(tert-butyl-dimethyl-silanyloxymethyl)-tetrahydro-furan-2-yl]-5-methyl-2,6-dioxo-3,6-dihydro-2H-pyrimidin-1-yl}-acetic acid] | 4.5
